Reference: ChEMBL document CHEMBL5331106, “Investigation into the Mechanism of Action of the Tuberculosis Drug Candidate SQ109 and Its Metabolites and Analogues in Mycobacteria” (J Med Chem, 2023)

Tests used:
[1] = tested on: Mycolicibacterium smegmatis; assay: Antimycobacterial activity against Mycobacterium smegmatis assessed as inhibition of mycobacterial growth incubated for 48 hrs in presence of 50 uM menaquinone-7; type: functional, organism-based
[2] = tested on: Mycolicibacterium smegmatis; assay: Antimycobacterial activity against Mycobacterium smegmatis assessed as inhibition of mycobacterial growth incubated for 48 hrs in presence of 25 uM undecaprenyl phosphate; type: functional, organism-based
[3] = tested on: Mycolicibacterium smegmatis; assay: Rescue fold, ratio of IC50 for antimycobacterial activity against Mycobacterium smegmatis in presence of 100 uM menaquinone-7 to IC50 for antimycobacterial activity against Mycobacterium smegmatis; type: functional
[4] = tested on: Mycolicibacterium smegmatis; assay: Antimycobacterial activity against Mycobacterium smegmatis assessed as inhibition of mycobacterial growth incubated for 48 hrs in presence of 12.5 uM undecaprenyl phosphate; type: functional, organism-based
[5] = Inhibition of Staphylococcus aureus undecaprenyl diphosphate synthase
[6] = tested on: Mycobacterium tuberculosis; assay: Antimycobacterial activity against Mycobacterium tuberculosis HN878 assessed as inhibition of mycobacterial growth incubated for 5 days; type: functional, organism-based; settings: HN878, 120 h
[7] = tested on: Mycolicibacterium smegmatis; assay: Antimycobacterial activity against Mycobacterium smegmatis assessed as inhibition of mycobacterial growth incubated for 48 hrs in presence of 50 uM menaquinone-4; type: functional, organism-based
[8] = Inhibition of Plasmodium vivax geranylgeranyl diphosphate synthase
[9] = target: T1, Trehalose monomycolate exporter MmpL3 (Mycolicibacterium smegmatis, UniProt A0QP27); assay: Binding affinity to Mycobacterium smegmatis MmpL3 by surface plasmon resonance assay
T1 sequence (A0QP27 whole entry): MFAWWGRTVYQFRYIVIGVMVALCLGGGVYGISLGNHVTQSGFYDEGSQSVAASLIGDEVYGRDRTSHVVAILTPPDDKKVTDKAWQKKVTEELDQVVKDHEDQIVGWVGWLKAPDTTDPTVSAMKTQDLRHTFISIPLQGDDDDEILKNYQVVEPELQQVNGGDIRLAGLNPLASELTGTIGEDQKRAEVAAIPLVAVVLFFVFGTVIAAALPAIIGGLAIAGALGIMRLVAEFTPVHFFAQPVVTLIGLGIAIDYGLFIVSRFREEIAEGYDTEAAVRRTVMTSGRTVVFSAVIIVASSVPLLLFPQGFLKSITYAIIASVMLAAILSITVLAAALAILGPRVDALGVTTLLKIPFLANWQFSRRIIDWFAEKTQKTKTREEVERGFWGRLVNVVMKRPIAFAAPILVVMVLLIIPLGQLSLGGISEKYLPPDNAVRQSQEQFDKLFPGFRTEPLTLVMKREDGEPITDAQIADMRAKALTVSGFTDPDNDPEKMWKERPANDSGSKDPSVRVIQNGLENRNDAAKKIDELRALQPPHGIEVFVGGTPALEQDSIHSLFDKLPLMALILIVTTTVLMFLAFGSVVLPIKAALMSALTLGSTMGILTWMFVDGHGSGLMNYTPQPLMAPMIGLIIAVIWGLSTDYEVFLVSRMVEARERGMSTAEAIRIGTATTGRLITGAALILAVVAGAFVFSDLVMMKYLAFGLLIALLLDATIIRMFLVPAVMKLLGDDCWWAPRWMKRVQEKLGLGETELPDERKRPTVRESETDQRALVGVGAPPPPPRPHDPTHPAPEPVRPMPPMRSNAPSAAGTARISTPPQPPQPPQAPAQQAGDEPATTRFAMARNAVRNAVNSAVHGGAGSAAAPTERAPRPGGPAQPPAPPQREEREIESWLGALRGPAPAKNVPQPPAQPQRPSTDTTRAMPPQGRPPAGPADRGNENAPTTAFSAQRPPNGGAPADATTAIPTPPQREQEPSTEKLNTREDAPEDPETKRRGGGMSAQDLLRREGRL

[10] = target: T2, (2Z,6E)-farnesyl diphosphate synthase (Mycobacterium tuberculosis, UniProt P9WFF5); assay: Inhibition of Mycobacterium tuberculosis cis-farnesyl diphosphate synthase
T2 sequence (P9WFF5 whole entry): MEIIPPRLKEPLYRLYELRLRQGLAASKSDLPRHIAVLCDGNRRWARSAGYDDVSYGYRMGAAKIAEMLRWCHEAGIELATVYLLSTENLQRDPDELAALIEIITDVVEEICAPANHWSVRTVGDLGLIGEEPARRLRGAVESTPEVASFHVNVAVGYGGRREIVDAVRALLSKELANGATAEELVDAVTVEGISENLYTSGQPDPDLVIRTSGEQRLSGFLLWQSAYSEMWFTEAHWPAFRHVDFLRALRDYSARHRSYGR

[11] = tested on: Mycolicibacterium smegmatis; assay: Antimycobacterial activity against Mycobacterium smegmatis assessed as inhibition of mycobacterial growth incubated for 48 hrs in presence of 100 uM menaquinone-7; type: functional, organism-based
[12] = tested on: Mycolicibacterium smegmatis; assay: Antimycobacterial activity against Mycobacterium smegmatis assessed as inhibition of mycobacterial growth incubated for 48 hrs in presence of 200 uM undecaprenyl phosphate; type: functional, organism-based
[13] = Inhibition of Escherichia coli undecaprenyl diphosphate synthase
[14] = tested on: Mycolicibacterium smegmatis; assay: Antimycobacterial activity against Mycobacterium smegmatis assessed as inhibition of mycobacterial growth incubated for 48 hrs; type: functional, organism-based
[15] = Inhibition of Staphylococcus aureus farnesyl diphosphate synthase
[16] = tested on: Mycolicibacterium smegmatis; assay: Antimycobacterial activity against Mycobacterium smegmatis assessed as inhibition of mycobacterial growth incubated for 48 hrs in presence of 50 uM undecaprenyl phosphate; type: functional, organism-based
Cell membrane = assay: Uncoupling activity in Escherichia coli inverted membrane vesicles assessed as collapse of pH gradient by measuring increase in ACMA fluorescence intensity by fluorometric analysis; type: subcellular
[17] = tested on: Mycolicibacterium smegmatis; assay: Antimycobacterial activity against Mycobacterium smegmatis assessed as inhibition of mycobacterial growth incubated for 48 hrs in presence of 200 uM menaquinone-4; type: functional, organism-based
[18] = target: T1, Trehalose monomycolate exporter MmpL3; assay: Binding affinity to C-terminal 10XHis-tagged Mycobacterium smegmatis mc2 155 MmpL3 expressed in Mycobacterium smegmatis mc2 155 cells by microscale thermophoresis analysis
[19] = Inhibition of Staphylococcus aureus dehydrosqualene synthase
[20] = tested on: Mycolicibacterium smegmatis; assay: Antimycobacterial activity against Mycobacterium smegmatis assessed as inhibition of mycobacterial growth incubated for 48 hrs in presence of 25 uM menaquinone-4; type: functional, organism-based
[21] = tested on: Mycolicibacterium smegmatis; assay: Rescue fold, ratio of IC50 for antimycobacterial activity against Mycobacterium smegmatis in presence of 200 uM menaquinone-4 to IC50 for antimycobacterial activity against Mycobacterium smegmatis; type: functional
[22] = tested on: Mycolicibacterium smegmatis; assay: Antimycobacterial activity against Mycobacterium smegmatis assessed as inhibition of mycobacterial growth incubated for 48 hrs in presence of 50 uM Upp; type: functional, organism-based
[23] = target: T3, Decaprenyl diphosphate synthase (Mycobacterium tuberculosis, UniProt P9WFF7); assay: Inhibition of Mycobacterium tuberculosis cis-decaprenyl diphosphate synthase
T3 sequence (P9WFF7 whole entry): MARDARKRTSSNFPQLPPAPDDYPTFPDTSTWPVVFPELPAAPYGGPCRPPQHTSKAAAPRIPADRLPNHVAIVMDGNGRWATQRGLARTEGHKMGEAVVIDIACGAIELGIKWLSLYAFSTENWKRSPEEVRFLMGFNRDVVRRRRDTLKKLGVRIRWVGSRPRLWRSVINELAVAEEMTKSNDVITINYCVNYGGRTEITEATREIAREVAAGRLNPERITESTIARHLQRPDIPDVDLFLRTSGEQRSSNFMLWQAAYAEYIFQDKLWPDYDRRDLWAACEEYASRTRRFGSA

[24] = tested on: Mycolicibacterium smegmatis; assay: Antimycobacterial activity against Mycobacterium smegmatis assessed as inhibition of mycobacterial growth incubated for 48 hrs in presence of 50 uM menaquinone-4 and 50 uM undecaprenyl phosphate; type: functional, organism-based
[25] = target: T4, Undecaprenyl-diphosphatase (Escherichia coli (strain K12), UniProt P60932); assay: Inhibition of UppP in Escherichia coli using FPP as substrate pretreated for 20 mins followed by FPP addition and measured after 60 mins by malachite green based assay
T4 sequence (P60932 whole entry): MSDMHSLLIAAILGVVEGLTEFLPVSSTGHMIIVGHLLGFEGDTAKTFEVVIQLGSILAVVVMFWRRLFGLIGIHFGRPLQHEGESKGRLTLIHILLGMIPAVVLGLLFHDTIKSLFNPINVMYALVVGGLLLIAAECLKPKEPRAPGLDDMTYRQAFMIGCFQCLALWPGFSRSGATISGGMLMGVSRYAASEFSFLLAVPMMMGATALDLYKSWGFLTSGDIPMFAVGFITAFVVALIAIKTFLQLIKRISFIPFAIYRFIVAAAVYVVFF

[26] = tested on: Mycobacterium tuberculosis; assay: Antimycobacterial activity against Mycobacterium tuberculosis HN878 assessed as inhibition of mycobacterial growth incubated for 5 days in presence of 50 uM undecaprenyl phosphate; type: functional, organism-based; settings: HN878, 120 h
[27] = Drug metabolism in Mycobacterium tuberculosis HN878 assessed as N1-(adamantan-1-yl)ethane-1,2-diamine metabolite formation at 10 uM incubated for 24 hrs by LC-MS analysis; type: ADME
[28] = tested on: Mycolicibacterium smegmatis; assay: Antimycobacterial activity against Mycobacterium smegmatis assessed as inhibition of mycobacterial growth incubated for 48 hrs in presence of 100 uM undecaprenyl phosphate; type: functional, organism-based
[29] = tested on: Mycolicibacterium smegmatis; assay: Rescue fold, ratio of IC50 for antimycobacterial activity against Mycobacterium smegmatis in presence of 50 uM undecaprenyl phosphate to IC50 for antimycobacterial activity against Mycobacterium smegmatis; type: functional

Question: With `CC(C)=CCC/C(C)=C/CNCCNC1C2CC3CC(C2)CC1C3` (stereo not given) [SQ109] as the compound, how does the IC50 [1] read?
Answer: 4.2 µM

Question: And the IC50 [2]?
Answer: 8.9 µM

Question: And the “Ratio IC50” value [3]?
Answer: 3

Question: And the IC50 [4]?
Answer: 3.7 µM

Question: And the IC50 [5]?
Answer: ≥ 50 µM

Question: And the IC50 [6]?
Answer: 0.41 µM

Question: And the IC50 [7]?
Answer: 2.9 µM

Question: And the IC50 [8]?
Answer: ≥ 50 µM

Question: What about the Kd [9] of the same compound?
Answer: 400 µM

Question: And the IC50 [10]?
Answer: ≥ 50 µM

Question: And the IC50 [11]?
Answer: 6.5 µM

Question: And the IC50 [12]?
Answer: 14 µM

Question: And the IC50 [13]?
Answer: ≥ 50 µM

Question: What about the IC50 [14] of the same compound?
Answer: 1.5 µM

Question: And the IC50 [15]?
Answer: ≥ 50 µM

Question: And the IC50 [16]?
Answer: 16 µM

Question: And the IC50 (Cell membrane)?
Answer: 2.3 µM

Question: And the IC50 [17]?
Answer: 4.8 µM

Question: What about the Kd [18] of the same compound?
Answer: 1.6 µM

Question: And the IC50 [19]?
Answer: ≥ 50 µM

Question: And the IC50 [20]?
Answer: 2.1 µM

Question: What about the “Ratio IC50” value [21] of the same compound?
Answer: 2

Question: And the IC50 [22]?
Answer: 1.4 µM

Question: And the IC50 [23]?
Answer: ≥ 50 µM

Question: What about the IC50 [24] of the same compound?
Answer: 16 µM

Question: And the IC50 [25]?
Answer: 32 µM

Question: And the IC50 [26]?
Answer: 6.1 µM

Question: And the Drug metabolism [27]?
Answer: Metabolite_Notdetected

Question: What about the IC50 [28] of the same compound?
Answer: 14 µM

Question: And the “Ratio IC50” value [29]?
Answer: 6.4
